# Results from patent US6310247A, “7-aryl-6(Z)-heptatrienoic acid retinamides” (Hoffmann-LA Roche Inc., priority 1999, dated 2001).
# Like-named read-outs stand apart in the source and are kept apart here.
# What was measured:
# RKO cells = experiment: Apoptosis: cell death detection by ELISA, RKO (colorectal carcinoma); assay type: cell-based, human; conditions: for fold induction at 1 µM / fold induction at 3.3 µM / fold induction at 10 µM: Homo sapiens, RKO, read-out: Fold induction of apoptosis compared to no drug control
# Protocol: Colorectal carcinoma, human (RKO) obtained from Dr. Bernie Vogelstein, were grown in Gibco's Delbecco Minimum Essential media (DMEM), high glucose, supplemented with sodium pyruvate, 10% FBS and 13 ng/mL gentamicin. Cells were incubated at 37° C., 4.5% CO2 and 95.5% humidified air.
# (§1) 2. Apoptosis: Cell death detection by ELISA:
# (§2) Compounds of formula 1 were tested for the ability to cause apoptosis as follows:
# (§3) Cells and media were collected, cells were pelleted, resuspended in 100 μl lysis buffer (50 mM Tris-Cl (pH=8.0), 20 mM EDTA, 1% NP-40e) and incubated 30 minutes at 4° C. to lyse. Cell debris was spun down and an aliquot (30 μl) of the […] was removed for protein determination and stored at -20° C. An additional 280 μl of lysis buffer, was added, mixed thoroughly and spun down at 14,000 RPM for 10 minutes at 4° C. An aliquot was removed (180 μl) and the sample was stored at -20° C. until testing.
# (§4) A commercially available apoptosis detection kit, obtained from Boehringer Mannheim (Cat. No. 1544-674), was used as per the directions provided with the kit (Cell Death Detection ELISA). However, the protocol was modified in that a 1:40 to 1:100 dilution of sample was prepared, rather than the recommended 1:10 dilution, due to the increase in cell number used to prepare the sample extract and the subsequent increase in ELISA reactivity. The assay measures apoptosis by quantifying the amount of nucleosomal fragmentation from the extracts of cells treated with the test compounds (samples). These nucleosomal fragments, generated by the activation of endonucleases, are a known downstream effector of apoptosis. Antihistone antibodies are used to fix any nucleosomal fragments in the sample to the well of the microtiter plates. The sample is then incubated with anti-DNA antibodies conjugated to peroxidase and subsequently incubated with the peroxidase substrate, ABTS. The resulting colorimetric change is measured spectrophotometrically at 405/490nm.
# (§5) The total protein content of each sample was determined for the purpose of normalizing the ELISA values to amount of sample loaded. Microplate assay protocol described in the instruction manual, for (Biorad DC Assay, Cat.#500-0116) section 5.2. The protein concentrations were calculated based upon a linear regression curve.
# (§6) d) ELISA assay calculations
# (§7) Relative ELISA O.D. readings are determined by subtracting the ELISA plate background O.D. value. No drug control O.D. value (lysis buffer only) was subtracted from sample O.D. value. A correction coefficient (CC), based on the sample protein concentration compared to no drug control, was determined to correct the sample O.D. following subtraction of the background O.D. (BCS O.D.). The fold increase over no drug control is calculated and normalized to the total protein concentration of the samples by multiplying against the correction coefficient.
# (§8) To determine the fold increase in ELISA O.D., obtain the following O.D. measurements:
# (§9) ELISA plate background--lysis buffer only (EPB);
# (§10) no drug treated control--cell sample treated with DMSO (NDT);
# (§11) drug treated sample--cell sample treated with a compound of formula 1 (DT) Subtract EPB from NDT (NDT-EPB) and DT (DT-EPB). The fold increase of the treated over the control is then (DT-EPB)/(NDT-EPB).
# (§12) To determine the total protein concentration of the samples, obtain the total protein concentration in mg/ul calculated using standard linear regression formula (y=mx+b) based on BSA standards. B=ELISA background. Protein concentration (PC)(mg/ml)=(sample absorbance-b)/x.
# (§13) Correction coefficient (cc) is (NDT)(PC)/(DT)(PC).
# (§14) Determine fold increase of ELISA (FT) normalized to total PC:
# (§15) nDT is DT×cc (which is DT O.D. normalized to PC)
# (§16) nNDT is NDT×cc (which is NDT O.D. normalized to PC)
# (§17) FI normalized to PC is nDT/nNDT.
# ZR-75-1 cells = experiment: Apoptosis: cell death detection by ELISA, ZR-75-1; assay type: cell-based, human; conditions: for fold induction at 1 µM / fold induction at 3.3 µM / fold induction at 10 µM: Homo sapiens, read-out: Fold induction of apoptosis compared to no drug control
# Protocol: ER+ breast carcinoma, human (ZR-75-1) obtained from ATCC (CRL 1500), were grown in Gibco's RPMI 1640 media supplemented with sodium pyruvate, 10% FBS and 13 ng/mL gentamicin. Cells were incubated at 37° C., 4.5% CO2 and 95.5% humidified air.
# as §1, §2, §3, §4, §5, §6, §7, §8, §9, §10, §11, §12, §13, §14, §15, §16, §17
# MDA 231 cells = experiment: Cell growth inhibition: MTT assay, MDA 231 (ER- breast carcinoma); assay type: cell-based; conditions: Homo sapiens, MDA-MB-231, read-out: % inhibition of cell growth compared to no drug control
# Protocol: ER- breast carcinoma, human (MDA-231) obtained from ATCC (HTB 22), were grown in Eagle's MEM medium supplemented with non-essential amino acids, sodium pyruvate, and Earle's BSS, 10% FBS, and 13 ng/mL gentamicin. Cells were incubated at 37° C., 4.5% CO2 and 95.5% humidified air.
# 1. Cell growth inhibition: MTT Assay
# The compounds of formula 1 were tested for ability to inhibit cell growth using the standard MTT assay, a tetrazolium-based assay which measures the viability of cells in culture. Cells were harvested upon reaching 70-80% confluency and pelleted. The cells were then resuspended in medium in which FBS was replaced with Hyclone's Charcoal/Dextran stripped FBS, and seeded (2 mL/well) into 6-well plates (Corning) at a density allowing for linear growth over a four day assay period. Compounds of formula 1 (10 mM stock in dimethylsulfoxide (DMSO)) were added 18-24 hours post-seeding. Compound dilutions were prepared in the appropriate growth media and added to the cells for final concentrations of 10, 3.3 and 1 μM in 0.1% DMSO. At 24, 48 and 72 hr. time points, MTT (3-[4,5-dimethylthiazol-2-yl-2,5-diphenyltetrazolium bromide) stock solution (5mg/mL in 1 PBS) was added to the cells plates (625 μL/well) which were then incubated for 2.5 hours. Liquid was aspirated from the wells and 1 mL/well of 95% ethanol was added to solubilize the formazan reaction product. The plates were shaken (Bellco Mini-Orbital Shaker) for 15 minutes. The solubilized formazan was then transferred (50 μls) into a 96-well plate and the optical densities (OD) were measured (Bio-Tek Microplate Reader) at 570 nm and reference wavelength of 660 nm. Percentage of inhibition of cell growth was calculated according to the following formula: [formula]
compound,measurement,setting,value
"C/C(=C/C=C/C(C)=C/C(=O)Nc1ccc(O)cc1)c1cc(C(F)(F)F)cc(C(F)(F)F)c1 [N-(4-hydroxyphenyl)-(2E,4E,6Z)-7-[3,5-bis(trifluoromethyl)phenyl]-3,7-dimethyl-2,4,6-heptatrienamide]",fold induction at 1 µM,RKO cells; 24 hrs,2
same,fold induction at 3.3 µM,RKO cells; 24 hrs,14
same,fold induction at 10 µM,RKO cells; 24 hrs,21
same,fold induction at 1 µM,RKO cells; 48 hrs,4
same,fold induction at 3.3 µM,RKO cells; 48 hrs,5
same,fold induction at 10 µM,RKO cells; 48 hrs,23
same,fold induction at 1 µM,RKO cells; 72 hrs,1
same,fold induction at 3.3 µM,RKO cells; 72 hrs,1
same,fold induction at 10 µM,RKO cells; 72 hrs,15
same,Induction of apoptosis (in words),RKO cells; after 24 hours,induces significant apoptosis
same,fold induction at 1 µM,"ZR-75-1 cells; ZR-75-1, 24 h, 24 hrs",2
same,fold induction at 3.3 µM,"ZR-75-1 cells; ZR-75-1, 24 h, 24 hrs",2
same,fold induction at 10 µM,"ZR-75-1 cells; ZR-75-1, 24 h, 24 hrs",3
same,fold induction at 1 µM,"ZR-75-1 cells; ZR-75-1, 48 h, 48 hrs",2
same,fold induction at 3.3 µM,"ZR-75-1 cells; ZR-75-1, 48 h, 48 hrs",19
same,fold induction at 10 µM,"ZR-75-1 cells; ZR-75-1, 48 h, 48 hrs",15
same,fold induction at 1 µM,"ZR-75-1 cells; ZR-75-1, 72 h, 72 hrs",2
same,fold induction at 3.3 µM,"ZR-75-1 cells; ZR-75-1, 72 h, 72 hrs",69
same,fold induction at 10 µM,"ZR-75-1 cells; ZR-75-1, 72 h, 72 hrs",67
same,Induction of apoptosis (in words),ZR-75-1 cells; after 48 hours,induces significant apoptosis
same,inhibition at 1 µM,MDA 231 cells; 24 hours,18%
same,inhibition at 3.3 µM,MDA 231 cells; 24 hours,30%
same,inhibition at 10 µM,MDA 231 cells; 24 hours,26%
same,inhibition at 1 µM,MDA 231 cells; 48 hours,39%
same,inhibition at 3.3 µM,MDA 231 cells; 48 hours,35%
same,inhibition at 10 µM,MDA 231 cells; 48 hours,61%
same,inhibition at 1 µM,MDA 231 cells; 72 hours,46%
same,inhibition at 3.3 µM,MDA 231 cells; 72 hours,62%
same,inhibition at 10 µM,MDA 231 cells; 72 hours,71%
